Results on 18 molecules are retold here after ChEMBL document CHEMBL1201862, “PubChem BioAssay data set” (2004).

The structures appear in SMILES notation. The source made the active and inactive calls. Some results are limits rather than exact numbers.

As a reminder, the EC50 is the concentration needed to bring the measured effect to its halfway point. As usually defined, the IC50 is the point on the concentration scale where inhibition reaches its midpoint. In general, AC50 refers to the concentration giving half of the maximal activity seen.

The target of test [1] is Peroxisome proliferator-activated receptor gamma/Nuclear receptor coactivator 3 (Homo sapiens, UniProt P37231). Put plainly: TR-FRET dose response biochemical High Throughput Screening assay for agonists of the steroid receptor coactivator 3 (SRC-3) recruitment by the peroxisome proliferator-activated receptor gamma (PPAR gamma): non-selective agonists. [Related pubchem assays: 1301 (Confirmation screen.), 1048 (Primary screen.)]. The test is classed as functional. On the technique in general: TR-FRET usually uses a lanthanide donor and a delayed reading to cut background.

The target of test [2] is Peroxisome proliferator-activated receptor gamma/Nuclear receptor coactivator 1 (Homo sapiens, UniProt P37231). Description: TR-FRET dose response biochemical High Throughput Screening assay for agonists of the steroid receptor coactivator 1 (SRC-1) recruitment by the peroxisome proliferator-activated receptor gamma (PPAR gamma): non-selective agonists. [Related pubchem assays (depositor defined):AID1300, AID1808, AID504735, AID631]. The test is classed as protein assay.

In test [3] the target is Peroxisome proliferator-activated receptor gamma/Nuclear receptor coactivator 2 (Homo sapiens, UniProt P37231). Put plainly: TR-FRET dose response biochemical High Throughput Screening assay for agonists of the steroid receptor coactivator 2 (SRC-2) recruitment by the peroxisome proliferator-activated receptor gamma (PPAR gamma): non-selective agonists. [Related pubchem assays: 1297, 1032 ]. The test is classed as functional.

The next test relates to H4. Put plainly: Luminescence Cell-Based Dose Response HTS to Identify Activators of 5'UTR Stem-Loop Driven Prion Protein mRNA Translation in H4 Neuroglioblastoma Cells. [Related pubchem assays: 1829 (Project Summary), 1814 (Primary HTS)]. Conditions: Homo sapiens. The test is classed as functional.
The target of test [4] is T1, Rac GTPase-activating protein 1 (Homo sapiens, UniProt Q9H0H5).
T1 sequence (Q9H0H5 whole entry): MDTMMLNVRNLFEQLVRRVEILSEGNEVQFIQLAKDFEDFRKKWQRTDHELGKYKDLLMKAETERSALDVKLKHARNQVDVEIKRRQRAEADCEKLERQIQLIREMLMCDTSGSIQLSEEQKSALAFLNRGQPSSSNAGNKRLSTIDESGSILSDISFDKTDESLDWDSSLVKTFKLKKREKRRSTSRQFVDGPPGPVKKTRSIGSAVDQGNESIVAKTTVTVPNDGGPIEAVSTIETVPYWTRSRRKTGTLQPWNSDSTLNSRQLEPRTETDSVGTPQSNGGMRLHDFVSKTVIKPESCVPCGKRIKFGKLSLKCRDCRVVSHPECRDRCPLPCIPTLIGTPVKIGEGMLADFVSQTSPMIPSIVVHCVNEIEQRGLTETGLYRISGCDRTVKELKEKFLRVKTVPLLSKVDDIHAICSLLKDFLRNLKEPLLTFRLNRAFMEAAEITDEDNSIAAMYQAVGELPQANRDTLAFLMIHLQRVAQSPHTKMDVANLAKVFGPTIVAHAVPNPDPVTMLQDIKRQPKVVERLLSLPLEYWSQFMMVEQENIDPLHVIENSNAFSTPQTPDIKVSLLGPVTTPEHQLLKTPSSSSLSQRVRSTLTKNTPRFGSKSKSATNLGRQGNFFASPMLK
Description: blockers of MgcRacGAP-driven Rac1 GTP hydrolysis – biochemical, ADP Hunter fluorescence, primary and confirmatory, confirmation (AID 624330). The test is classed as functional.

Test [5] in a line: Luminescence Cell-Based Dose Response HTS to Identify Activators of Luciferase Translation or Activity in H4 […] Cells. [Related pubchem assays: 1829 (Project Summary), 1814 (Primary HTS)]. The test is classed as functional.
Test [6] can be described thus: Luminescence Cell-Based Dose Confirmation HTS to Identify Activators of 5'UTR Stem-Loop Driven Alpha-Synuclein mRNA Translation in H4 Neuroglioblastoma Cells. [Related pubchem assays: 1829 (Project Summary), 1814 (Primary HTS)]. Format: functional.
Test [7] concerns the target Eukaryotic translation initiation factor 4E (Mus musculus, UniProt P63073). Description: blockers of eIF4G binding by eIF4E – biochemical, TR-FRET, dose response (AID 855).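 Also: potency for disrupting eIF4E binding to eIF4GI seen as loss of FRET.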 The test is classed as functional.
In test [8] the target is Alkaline phosphatase, placental type (Homo sapiens, UniProt P05187). Description: human placental alkaline phosphatase inhibition – biochemical, luminescence, confirmation (AID 1512). The test is classed as functional.
Test [9] concerns the target T2, Alkaline phosphatase, tissue-nonspecific isozyme (Homo sapiens, UniProt P05186).
T2 sequence (P05186 whole entry): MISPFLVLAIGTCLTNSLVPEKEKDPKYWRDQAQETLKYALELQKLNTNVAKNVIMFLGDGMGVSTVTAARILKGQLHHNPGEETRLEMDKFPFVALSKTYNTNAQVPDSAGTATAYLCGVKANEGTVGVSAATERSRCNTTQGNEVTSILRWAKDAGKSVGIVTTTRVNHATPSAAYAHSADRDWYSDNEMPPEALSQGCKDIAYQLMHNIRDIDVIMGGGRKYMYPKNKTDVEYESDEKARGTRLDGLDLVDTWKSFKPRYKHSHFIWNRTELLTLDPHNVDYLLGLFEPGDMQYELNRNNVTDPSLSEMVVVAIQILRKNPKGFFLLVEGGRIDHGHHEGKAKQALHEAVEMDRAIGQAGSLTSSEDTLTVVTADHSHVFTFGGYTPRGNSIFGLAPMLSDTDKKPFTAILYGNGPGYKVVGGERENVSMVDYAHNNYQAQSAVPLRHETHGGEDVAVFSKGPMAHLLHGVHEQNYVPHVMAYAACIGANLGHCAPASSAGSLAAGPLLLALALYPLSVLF
Description: potency against alkaline phosphatase TNAP – biochemical, luminescent, dose response, SAR follow-up (AID 1056).

Test [10] deals with Glyceraldehyde-3-phosphate dehydrogenase (Homo sapiens, UniProt P04406).
For the next test, the target named is Beta-galactosidase (Escherichia coli, UniProt Q8VNN2). Put plainly: PubChem AID 485352. Format: functional.
Another test has as its system INS1. Description: INS-1E survival protection against cytokine death – cell-based, luminescence, retest, dose response (AID 449756).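 Also: cell death triggered by IL-1 beta plus TNF-alpha plus IFN-gamma mixture; protective hits raise ATP signal compared with cytokine alone wells.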 Format: functional. Conditions: Rattus norvegicus.
Test [11] concerns the target T3, Type-1 angiotensin II receptor (Homo sapiens, UniProt P30556).
T3 sequence (P30556 whole entry): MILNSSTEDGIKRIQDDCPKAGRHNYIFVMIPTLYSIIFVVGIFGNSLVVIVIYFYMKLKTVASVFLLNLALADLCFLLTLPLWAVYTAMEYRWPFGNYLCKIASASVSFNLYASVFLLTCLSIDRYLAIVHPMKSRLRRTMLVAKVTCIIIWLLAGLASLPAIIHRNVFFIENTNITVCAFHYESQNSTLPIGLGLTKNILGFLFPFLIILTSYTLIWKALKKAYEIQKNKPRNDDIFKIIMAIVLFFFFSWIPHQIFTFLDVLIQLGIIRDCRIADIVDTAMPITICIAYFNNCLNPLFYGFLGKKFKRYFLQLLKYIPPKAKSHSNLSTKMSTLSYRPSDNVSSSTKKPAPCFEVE
Put plainly: antagonism of angiotensin II type 1 receptor – cell-based, uHTS hits, selectivity assay for APJ receptor antagonist project, dose response (AID 463214).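 Also: antagonist potency against angiotensin II stimulated AT1 response.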 Format: functional.

Test [12] can be described thus: Luminescence Cell-Based Dose Retest to Confirm Inhibitors of Cancer Stem Cells. [Related pubchem assays (depositor defined):AID2717, AID2721]. The test is classed as functional. Conditions: Homo sapiens.
Another test deals with T4, Estrogen receptor (Homo sapiens, UniProt P03372).
T4 sequence (P03372 whole entry): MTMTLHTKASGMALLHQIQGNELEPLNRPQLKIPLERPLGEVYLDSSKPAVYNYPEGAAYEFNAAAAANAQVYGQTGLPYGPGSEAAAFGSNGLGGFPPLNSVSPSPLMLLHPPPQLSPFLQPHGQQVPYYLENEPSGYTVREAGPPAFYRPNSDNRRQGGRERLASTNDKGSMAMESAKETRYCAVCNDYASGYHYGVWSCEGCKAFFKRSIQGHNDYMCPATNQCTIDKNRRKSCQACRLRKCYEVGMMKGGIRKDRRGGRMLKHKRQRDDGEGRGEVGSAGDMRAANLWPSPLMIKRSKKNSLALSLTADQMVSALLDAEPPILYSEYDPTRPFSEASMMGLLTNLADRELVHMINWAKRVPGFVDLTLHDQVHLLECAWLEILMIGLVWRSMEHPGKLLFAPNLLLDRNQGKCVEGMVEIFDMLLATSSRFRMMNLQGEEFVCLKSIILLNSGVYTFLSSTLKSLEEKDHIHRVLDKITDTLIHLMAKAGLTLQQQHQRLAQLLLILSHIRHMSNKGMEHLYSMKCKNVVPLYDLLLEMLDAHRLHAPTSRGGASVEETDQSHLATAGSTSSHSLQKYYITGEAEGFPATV

Chain of Beta-galactosidase (Q8VNN2 whole entry): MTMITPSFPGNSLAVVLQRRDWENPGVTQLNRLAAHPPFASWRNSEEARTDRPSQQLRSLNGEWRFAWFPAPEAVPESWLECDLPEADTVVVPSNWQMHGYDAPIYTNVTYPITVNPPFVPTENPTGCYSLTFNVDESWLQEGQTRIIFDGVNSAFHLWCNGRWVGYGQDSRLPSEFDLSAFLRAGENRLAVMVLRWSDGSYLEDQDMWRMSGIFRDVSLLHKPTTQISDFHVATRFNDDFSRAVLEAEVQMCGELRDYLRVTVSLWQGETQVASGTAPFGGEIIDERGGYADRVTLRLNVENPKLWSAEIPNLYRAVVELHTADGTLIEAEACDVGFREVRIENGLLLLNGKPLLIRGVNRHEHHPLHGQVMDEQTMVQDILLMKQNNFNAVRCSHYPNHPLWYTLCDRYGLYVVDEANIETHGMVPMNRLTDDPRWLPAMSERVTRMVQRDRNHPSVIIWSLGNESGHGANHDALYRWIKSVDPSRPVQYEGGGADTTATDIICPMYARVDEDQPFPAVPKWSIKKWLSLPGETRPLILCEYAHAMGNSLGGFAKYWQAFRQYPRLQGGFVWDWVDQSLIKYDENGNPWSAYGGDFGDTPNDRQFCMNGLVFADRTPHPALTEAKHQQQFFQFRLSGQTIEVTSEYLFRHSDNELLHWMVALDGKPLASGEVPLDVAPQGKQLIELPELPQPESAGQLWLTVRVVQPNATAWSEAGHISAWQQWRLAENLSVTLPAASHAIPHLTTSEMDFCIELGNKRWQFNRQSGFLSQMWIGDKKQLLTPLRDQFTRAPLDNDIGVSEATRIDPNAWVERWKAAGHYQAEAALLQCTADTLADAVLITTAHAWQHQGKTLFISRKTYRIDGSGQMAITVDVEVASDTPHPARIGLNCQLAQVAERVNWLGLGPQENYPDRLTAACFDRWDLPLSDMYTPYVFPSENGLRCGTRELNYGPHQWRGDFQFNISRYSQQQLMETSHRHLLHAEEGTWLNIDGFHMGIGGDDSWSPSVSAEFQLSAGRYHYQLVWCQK
Chain of Glyceraldehyde-3-phosphate dehydrogenase (P04406 whole entry): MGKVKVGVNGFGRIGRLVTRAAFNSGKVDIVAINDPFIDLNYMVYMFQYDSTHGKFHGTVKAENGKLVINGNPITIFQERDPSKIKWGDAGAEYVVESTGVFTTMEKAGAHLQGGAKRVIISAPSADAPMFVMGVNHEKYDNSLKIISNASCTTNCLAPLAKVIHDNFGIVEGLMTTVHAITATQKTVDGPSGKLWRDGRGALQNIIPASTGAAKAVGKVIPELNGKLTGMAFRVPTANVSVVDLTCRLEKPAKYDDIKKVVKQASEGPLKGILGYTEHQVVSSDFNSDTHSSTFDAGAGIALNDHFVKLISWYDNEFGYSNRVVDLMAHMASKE
Chain of Peroxisome proliferator-activated receptor gamma/Nuclear receptor coactivator 3 (P37231 whole entry): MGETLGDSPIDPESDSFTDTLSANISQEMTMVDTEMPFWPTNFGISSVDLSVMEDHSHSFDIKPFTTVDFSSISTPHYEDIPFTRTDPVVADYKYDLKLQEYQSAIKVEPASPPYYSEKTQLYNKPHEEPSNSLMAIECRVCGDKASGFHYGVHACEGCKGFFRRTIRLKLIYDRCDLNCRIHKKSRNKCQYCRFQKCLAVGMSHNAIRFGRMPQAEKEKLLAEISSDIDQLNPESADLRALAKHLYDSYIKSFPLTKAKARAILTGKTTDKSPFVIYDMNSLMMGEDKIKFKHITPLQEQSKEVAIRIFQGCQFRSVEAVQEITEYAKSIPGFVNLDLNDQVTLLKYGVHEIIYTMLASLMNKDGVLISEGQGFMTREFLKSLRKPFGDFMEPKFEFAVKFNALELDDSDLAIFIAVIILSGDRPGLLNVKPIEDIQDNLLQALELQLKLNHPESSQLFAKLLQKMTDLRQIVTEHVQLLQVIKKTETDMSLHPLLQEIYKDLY
Chain of Peroxisome proliferator-activated receptor gamma/Nuclear receptor coactivator 3 (Q9Y6Q9 whole entry, further chain): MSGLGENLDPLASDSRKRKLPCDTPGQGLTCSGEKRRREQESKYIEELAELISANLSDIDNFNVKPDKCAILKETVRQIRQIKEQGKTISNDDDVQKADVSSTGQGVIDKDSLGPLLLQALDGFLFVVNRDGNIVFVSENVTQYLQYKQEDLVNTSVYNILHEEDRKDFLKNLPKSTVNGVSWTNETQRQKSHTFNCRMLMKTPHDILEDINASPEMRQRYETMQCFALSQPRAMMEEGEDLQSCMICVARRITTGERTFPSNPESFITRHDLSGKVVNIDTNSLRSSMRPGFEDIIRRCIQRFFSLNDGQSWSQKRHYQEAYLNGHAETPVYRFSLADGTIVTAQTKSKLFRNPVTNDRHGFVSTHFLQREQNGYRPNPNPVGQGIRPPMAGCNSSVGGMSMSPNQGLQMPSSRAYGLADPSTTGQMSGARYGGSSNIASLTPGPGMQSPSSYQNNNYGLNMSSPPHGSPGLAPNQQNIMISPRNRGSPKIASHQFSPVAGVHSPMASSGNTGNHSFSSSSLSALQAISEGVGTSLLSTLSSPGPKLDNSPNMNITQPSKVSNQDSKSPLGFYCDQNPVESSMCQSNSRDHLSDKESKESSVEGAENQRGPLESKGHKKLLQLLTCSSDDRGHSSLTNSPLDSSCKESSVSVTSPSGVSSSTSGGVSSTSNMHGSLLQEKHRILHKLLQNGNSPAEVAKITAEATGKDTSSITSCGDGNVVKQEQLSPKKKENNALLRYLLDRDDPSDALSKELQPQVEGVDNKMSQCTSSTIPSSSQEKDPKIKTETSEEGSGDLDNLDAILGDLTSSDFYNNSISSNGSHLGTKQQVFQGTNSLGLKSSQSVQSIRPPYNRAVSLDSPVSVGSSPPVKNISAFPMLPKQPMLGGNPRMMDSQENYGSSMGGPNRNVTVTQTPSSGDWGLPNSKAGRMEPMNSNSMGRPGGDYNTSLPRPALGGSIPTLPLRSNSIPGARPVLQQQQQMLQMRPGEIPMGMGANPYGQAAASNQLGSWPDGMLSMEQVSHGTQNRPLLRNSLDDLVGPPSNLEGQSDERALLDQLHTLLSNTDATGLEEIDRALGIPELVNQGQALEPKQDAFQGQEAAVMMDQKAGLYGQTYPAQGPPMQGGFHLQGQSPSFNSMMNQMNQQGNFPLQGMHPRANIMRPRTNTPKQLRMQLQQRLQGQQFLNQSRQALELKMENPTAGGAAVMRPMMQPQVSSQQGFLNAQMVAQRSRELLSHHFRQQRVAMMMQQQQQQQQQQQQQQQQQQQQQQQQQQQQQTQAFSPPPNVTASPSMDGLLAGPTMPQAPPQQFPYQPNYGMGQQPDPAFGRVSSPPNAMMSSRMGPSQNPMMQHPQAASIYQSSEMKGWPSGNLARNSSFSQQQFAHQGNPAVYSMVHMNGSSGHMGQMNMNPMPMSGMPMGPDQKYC
Chain of Alkaline phosphatase, placental type (P05187 whole entry): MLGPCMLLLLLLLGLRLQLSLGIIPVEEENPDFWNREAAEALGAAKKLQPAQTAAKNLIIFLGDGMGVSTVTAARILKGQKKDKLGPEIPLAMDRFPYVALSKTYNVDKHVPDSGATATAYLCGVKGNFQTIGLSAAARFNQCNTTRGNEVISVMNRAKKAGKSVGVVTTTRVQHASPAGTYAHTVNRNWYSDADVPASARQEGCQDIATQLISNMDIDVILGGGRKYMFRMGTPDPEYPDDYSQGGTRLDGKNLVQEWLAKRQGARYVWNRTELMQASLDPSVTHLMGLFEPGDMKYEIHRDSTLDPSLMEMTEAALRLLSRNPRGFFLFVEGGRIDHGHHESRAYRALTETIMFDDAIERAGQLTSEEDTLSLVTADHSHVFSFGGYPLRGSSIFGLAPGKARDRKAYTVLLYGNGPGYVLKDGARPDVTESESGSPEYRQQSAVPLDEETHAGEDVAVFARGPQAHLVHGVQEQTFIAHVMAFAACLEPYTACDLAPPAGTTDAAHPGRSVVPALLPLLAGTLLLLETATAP
Chain of Eukaryotic translation initiation factor 4E (P63073 whole entry): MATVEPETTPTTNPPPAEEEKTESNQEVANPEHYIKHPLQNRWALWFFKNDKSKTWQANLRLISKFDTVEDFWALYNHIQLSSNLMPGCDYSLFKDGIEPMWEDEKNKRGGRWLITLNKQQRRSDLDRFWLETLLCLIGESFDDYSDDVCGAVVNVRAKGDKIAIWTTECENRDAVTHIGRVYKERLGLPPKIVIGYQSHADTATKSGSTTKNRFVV

For `Cc1ccc(-n2c(S)nnc2-c2cccc(C)c2)cc1`, the 50% effective concentration (EC50) in [1] was > 79.4 µM (not active); in [2] it was 70.8 µM (inactive); in [3], 40.1 µM (not active).
On to `CN(C)c1ccc2c(c1)N=C(c1ccco1)OP2(=S)N1CCOCC1` (stereo not drawn), for which the EC50 in the test on H4 is 49.6 µM (active); in [5], 17.9 µM (active); in test [6], 15.7 µM (active). Besides, the results for the IC50 in [4] and in test [7] were 179 µM (active) and > 64 µM (inactive), respectively.
Consider `CCNC(=S)NNC(=O)c1cc(C2CC2)nc2ccccc12`, for which the IC50 in test [8] was > 100 µM (inactive).
With `CC1(C)CC(=O)c2c(n[nH]c2-c2cccnc2)C1`, the IC50 in test [9] is 13.3 µM (active); in test [8] it was > 100 µM (inactive); in test [10], > 100 µM (not active).
For `O=C(CSc1nnc(-c2ccccc2)[nH]1)c1ccc(O)cc1O`, the concentration for half-maximal inhibition (IC50) was 3.71 µM (active) in test [9] and > 100 µM (inactive) in test [8].
Consider `COc1ccc2c(c1)C(=O)[C@H](O)[C@@H](c1ccc(OC)c(Br)c1)O2`, for which the EC50 at Beta-galactosidase was > 40 µM (inactive). In addition, the half-maximal activity concentration (AC50) in the test on INS1 was 3.71 µM (active); in [12] it was 7.62 µM (active). Moreover, the 50% inhibitory concentration (IC50) in test [11] is 12.1 µM (active).
As for `O=C1c2cccc(F)c2C(=O)N1c1nnc(Cc2ccccc2)[nH]1`, the IC50 was 0.353 µM (active) in test [9], > 100 µM (inactive) in [8] and > 100 µM (not active) in test [10].
Consider `CCOC(=O)c1sc2nc(C)nc(S)c2c1C`, for which the 50% effective concentration (EC50) in [1] was > 79.4 µM (not active); in test [2] it was 162 µM (inactive); in test [3] it was 37.3 µM (not active).
On to `CCc1c(C(=O)NNC(=S)NCC2CCCO2)csc1C` (stereo not drawn), for which the IC50 in test [8] was > 100 µM (inactive).
`O=C(O)c1ccc2c(c1)C(=O)N(c1nc(-c3cccnc3)n[nH]1)C2=O`: the IC50 is > 100 µM (inactive) in test [9] and > 100 µM (not active) in test [10].
On to `COc1ccc(CNC(=O)CSc2nc(-c3ccccc3)cc(-c3cccs3)c2C#N)cc1`, for which the EC50 in test [1] was > 79.4 µM (not active); in test [2], 22.9 µM (inactive); in test [3] it was 22.2 µM (not active).
Turning to `Nc1nc(COc2ccccc2)n(-c2ccccc2)n1`, the IC50 was > 100 µM (inactive) in test [9], > 100 µM (inactive) in test [8] and > 100 µM (not active) in [10].
Take `O=C(CSc1ncnc2c1oc1ccccc12)NC1CCCCC1`: the half-maximal effective concentration (EC50) in [1] is > 79.4 µM (not active); in test [2], 9.85 µM (active); in [3] it was 14.4 µM (not active).
Take `COc1ccc(CC(=O)OCC(=O)c2ccc(S(=O)(=O)N3CCCCC3)cc2)cc1`: the EC50 on Beta-galactosidase was > 40 µM (inactive). Moreover, the concentration for half-maximal inhibition (IC50) in [11] is listed as 20 µM (not active).
Turning to `O=C(NNc1ccc(-c2csnn2)cc1)c1cc(Cl)cc(Cl)c1`, at Beta-galactosidase, the EC50 was > 40 µM (inactive). For the same molecule, the half-inhibitory concentration (IC50) in test [11] is 2.43 µM (active). The AC50 in test [12] is 2.15 µM (active).
Consider `COC(=O)COc1ccc(S(=O)(=O)Nc2ccc3c(c2)OCO3)cc1`, for which the values for the concentration for half-maximal inhibition (IC50) (against Estrogen receptor; in test [7]) were > 50 µM (not active) and > 64 µM (inactive), respectively.
On to `O=S(=O)(Nc1cccnc1)c1cc(Cl)ccc1Cl`, for which the IC50 in [9] was > 100 µM (inactive); in test [10], > 100 µM (not active).
As for `O=C1CC(Sc2nnc(-c3ccccc3)o2)C(=O)N1c1ccccc1` (stereo not drawn), the half-maximal effective concentration (EC50) is > 79.4 µM (not active) in test [1], > 79.4 µM (inactive) in test [2] and 89.2 µM (not active) in test [3].
